pIC50: −log10 of the molar value. Converted amounts (≈) assume the structure as drawn. “And” between values parts separate entries of the source, which are not always exact repeats. Equal values may be shown once. Read-outs that look alike come from different tables or passages of the source.
Columns and labels:
HEK293T = assay: Cytotoxicity assay (MTT); type: cell-based, human; details: for cytotoxicity: HEK293T and HepG2; for MTT data (raw readout): HEK293T; for pIC50: 24 h, MTT
Outline: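 HEK293T cells, maintained at 37 °C and 7% CO2 in Dulbecco’s modified Eagle medium with GlutaMax, antibiotics and serum, were plated in clear 96-well plates in 100 µl medium containing 1% fetal bovine serum and left 24 h to attach. After 24 h compound exposure, MTT (0.40 mg ml^−1) was added for 2 h. Formazan was dissolved in 100 µl DMSO and absorbance measured at 570 nm. Background-corrected IC50 values came from variable-slope non-linear fits.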

HepG2 = assay: Cytotoxicity assay (MTT); type: cell-based, human; details: for pIC50: MTT, 24 h
[1] = test system: E. coli W3110 gyrA S97L, S83L, D87N; assay: MIC against CRISPR/Cas9 gyrA point mutants; type: cell-based, Escherichia coli; details: for susceptibility of gyrA S97L mutant: CRISPR–Cas9 S97L; for MIC: Escherichia coli
Protocol: (§1) MIC was determined by broth microdilution. Single-colony cultures were grown to exponential phase (OD600 of 0.5) aerobically at 37 °C. In case of strains from the Keio collection, 50 µg ml^−1 kanamycin was supplemented to the media to ascertain a homogeneous population. The bacterial suspensions were diluted 100-fold in CAMHB and 50 µl was added to a twofold serial dilution series of test compounds (50 µl per well) in polypropylene 96-well microtitre plates to reach a volume of 100 µl. The plates were sealed with breathable membranes and incubated overnight at 37 °C with constant shaking (600 r.p.m.). The MIC was determined as the lowest concentration at which no visible bacterial growth was observed as compared with the inoculum controls from the median of a minimum of triplicates.
Mutants of the DNA gyrase subunit A encoding gene (gyrA) were constructed following the protocol for gene editing via the CRISPR–Cas9 system. Strains and plasmids used are listed in Supplementary Table 15, and primers used can be found in Supplementary Table 16. The following mutations were created: S97L in E. coli W3110. Two common mutations in the gyrA gene that give resistance to fluoroquinolone antibiotics were created in E. coli W3110, namely S83L and D87N. To create the gyrA (S97L) mutants, the construct psgRNA-gyrA-M5 was assembled as follows: The 20-nt spacer sequence was introduced by PCR on pTargetF using primers gyrA_P11 and gyrA_P12, the homology-directed repair (HDR) arms were amplified from E. coli W3110 genomic DNA by PCR using primer pairs gyrA_P05 and gyrA_P013, and gyrA_P08 and gyrA_P14. The three PCR fragments generated were cloned into the SpeI and BglII digested pTargetF via Gibson assembly. To avoid off-target effects of CRISPR, besides desired point mutation for gyrA (S97L), four other silent point mutations were also included in the HDR template. Consequently, the amino acid sequence of gyrA will remain the same in the generated mutant except for the desired mutation. Similarly, constructs psgRNA-gyrA-S83L and psgRNA-gyrA-D87N were created to introduce mutations S83L and D87N in gyrA, respectively. In psgRNA-gyrA-S83L, spacer sequence was introduced using primers gyrA_P12 and gyrA_P17, HDR template was amplified using primer pairs gyrA_P05 and gyrA_P18, and gyrA_P08 and gyrA_P19. In psgRNA-gyrA-D87N, spacer sequence was introduced using primers gyrA_P12 and gyrA_P20, HDR template was amplified using primer pairs gyrA_P05 and gyrA_P21, and gyrA_P08 and gyrA_P22. The verified constructs for gyrA engineering were transformed into E. coli W3110 carrying pCas9, and plated in LB containing kanamycin (50 µg ml^−1) for the selection of the pCas9 plasmid and spectinomycin (100 µg ml^−1) for the selection of psgRNA-gyrA-X. The plates were incubated at 30 °C. Plasmids were cured by growing the strains with 0.5 mM isopropylthiogalactoside with no antibiotics to lose first the psgRNA-gyrA plasmids. After losing the spectinomycin resistance, the strain was grown in LB with no antibiotics at 42 °C to lose the pCas plasmid. Colony PCR was performed on plasmid-free colonies using primers gyrA_P9 and gyrA_P10, and PCR products were sequenced to confirm the desired mutation

P. aeruginosa ATCC 27853 = assay: MIC by broth microdilution; type: cell-based; details: Pseudomonas aeruginosa, ATCC27853; read-out: MIC P. aeruginosa ATCC 27853
Protocol: as §1

A. baumannii ATCC BAA747 = assay: MIC by broth microdilution; type: cell-based; details: Acinetobacter baumannii, ATCCBAA747; read-out: MIC A. baumannii ATCC BAA747
Protocol: as §1

[2] = test system: S. aureus ATCC 29213 / ATCC BAA1717; assay: MIC by broth microdilution; type: cell-based; details: Staphylococcus aureus
Protocol: as §1

[3] = 0.023 uM, experiment n = 1, technical triplicates
[4] = 0.023 uM, experiment n = 2, technical triplicates
[5] = 0.068 uM, experiment n = 1, technical triplicates
[6] = 0.068 uM, experiment n = 2, technical triplicates
[7] = 0.21 uM, experiment n = 1, technical triplicates
[8] = 0.21 uM, experiment n = 2, technical triplicates
[9] = 0.62 uM, experiment n = 1, technical triplicates
[10] = 0.62 uM, experiment n = 2, technical triplicates
[11] = 1.85 uM, experiment n = 1, technical triplicates
[12] = 1.85 uM, experiment n = 2, technical triplicates
[13] = HepG2, 0.023 uM, experiment n = 1, technical triplicates
[14] = HepG2, 0.023 uM, experiment n = 2, technical triplicates
[15] = HepG2, 0.068 uM, experiment n = 1, technical triplicates
[16] = HepG2, 0.068 uM, experiment n = 2, technical triplicates
[17] = HepG2, 0.21 uM, experiment n = 1, technical triplicates
[18] = HepG2, 0.21 uM, experiment n = 2, technical triplicates
[19] = HepG2, 0.62 uM, experiment n = 1, technical triplicates
[20] = HepG2, 0.62 uM, experiment n = 2, technical triplicates
[21] = HepG2, 1.85 uM, experiment n = 1, technical triplicates
[22] = HepG2, 1.85 uM, experiment n = 2, technical triplicates
[23] = E. coli W3110 gyrA D87N (FQ-resistant 2)
[24] = E. coli W3110 gyrA S83L (FQ-resistant 1)
[25] = E. coli W3110 gyrA S97L (LEI-800-resistant)
[26] = read-out: MIC S. aureus ATCC 29213
[27] = read-out: MIC S. aureus ATCC BAA1717

Row | Structure (SMILES) | cytotoxicity (HEK293T) | MTT data (raw readout) (HEK293T; [3]) | MTT data (raw readout) (HEK293T; [4]) | MTT data (raw readout) (HEK293T; [5]) | MTT data (raw readout) (HEK293T; [6]) | MTT data (raw readout) (HEK293T; [7]) | MTT data (raw readout) (HEK293T; [8]) | MTT data (raw readout) (HEK293T; [9]) | MTT data (raw readout) (HEK293T; [10]) | MTT data (raw readout) (HEK293T; [11]) | MTT data (raw readout) (HEK293T; [12]) | pIC50 (HEK293T; Homo sapiens, HEK-293T) | MTT data (raw readout) (HepG2; [13]) | MTT data (raw readout) (HepG2; [14]) | MTT data (raw readout) (HepG2; [15]) | MTT data (raw readout) (HepG2; [16]) | MTT data (raw readout) (HepG2; [17]) | MTT data (raw readout) (HepG2; [18]) | MTT data (raw readout) (HepG2; [19]) | MTT data (raw readout) (HepG2; [20]) | also measured
1 | O=S(=O)(NCCNCc1ccc(-c2ccc(F)nc2)cc1)c1cccc2cnccc12 [Compound 60] | lowest cytotoxicity | 0.733 and 0.692 | 0.767 and 0.777 and 0.816 | 0.746 and 0.796 and 0.737 | 0.800 and 0.790 and 0.829 | 0.734 and 0.766 and 0.710 | 0.783 and 0.732 and 0.731 | 0.735 and 0.740 and 0.733 | 0.809 and 0.824 and 0.770 | 0.725 and 0.718 and 0.739 | 0.764 and 0.783 and 0.787 | 4.29 | 0.514 and 0.522 and 0.506 | 0.553 and 0.550 and 0.561 | 0.526 and 0.514 and 0.522 | 0.571 and 0.568 and 0.585 | 0.544 and 0.520 and 0.508 | 0.610 and 0.553 and 0.611 | 0.525 and 0.501 and 0.502 | 0.621 and 0.610 and 0.573 | pIC50 (HEK293T): < 4.30; MTT data (raw readout) (HepG2; [21]): 0.546 and 0.544 and 0.528; MTT data (raw readout) (HepG2; [22]): 0.581 and 0.605; pIC50 (HepG2; Homo sapiens, HepG2, 24 h): < 4.00; pIC50 (HepG2): < 4.30; susceptibility of gyrA S97L mutant [1]: resistant; MIC [1, 23]: 50 µM (≈ 21.8 µg/mL); MIC [1, 24]: 25 µM (≈ 10.9 µg/mL); MIC [1, 25]: > 50 µM; MIC (P. aeruginosa ATCC 27853): > 50 µM; MIC (A. baumannii ATCC BAA747): > 50 µM; MIC [2, 26]: > 50 µM; MIC [2, 27]: > 50 µM
2 | O=S(=O)(NC[C@@H]1CC[C@H](c2ccc(-c3ccc(F)cc3)cc2)N1)c1cccc2cnccc12 [Compound 101] | substantial cytotoxicity | 1.467 and 1.369 and 1.336 | 0.913 and 0.978 and 0.995 | 1.354 and 1.258 and 1.005 | 1.026 and 1.021 and 0.846 | 1.223 and 1.254 and 1.173 | 1.069 and 0.984 and 0.926 | 1.112 and 0.937 and 0.942 | 0.770 and 0.738 and 0.688 | 0.725 and 0.641 and 0.684 | 0.521 and 0.485 and 0.507 | 5.49 | 0.470 and 0.394 and 0.364 | 0.305 and 0.260 and 0.288 | 0.452 and 0.420 and 0.368 | 0.322 and 0.313 and 0.323 | 0.390 and 0.419 and 0.407 | 0.324 and 0.279 and 0.267 | 0.368 and 0.340 and 0.370 | 0.315 and 0.269 and 0.267 | MTT data (raw readout) (HEK293T; 5.6 uM, experiment n = 1, technical triplicates): 0.749 and 0.695 and 0.667; MTT data (raw readout) (HEK293T; 5.6 uM, experiment n = 2, technical triplicates): 0.483 and 0.462 and 0.474; MTT data (raw readout) (HEK293T; 16.7 uM, experiment n = 1, technical triplicates): 0.450 and 0.504 and 0.484; MTT data (raw readout) (HEK293T; 16.7 uM, experiment n = 2, technical triplicates): 0.372 and 0.345; MTT data (raw readout) (HEK293T; 50 uM, experiment n = 2, technical triplicates): 0.011 and 0.012; MTT data (raw readout) (HepG2; [21]): 0.439 and 0.392 and 0.378; MTT data (raw readout) (HepG2; [22]): 0.289 and 0.297 and 0.299; MTT data (raw readout) (HepG2; HepG2, 5.6 uM, experiment n = 1, technical triplicates): 0.403 and 0.384 and 0.371; MTT data (raw readout) (HepG2; HepG2, 5.6 uM, experiment n = 2, technical triplicates): 0.315 and 0.277 and 0.266; MTT data (raw readout) (HepG2; HepG2, 16.7 uM, experiment n = 1, technical triplicates): 0.208 and 0.211 and 0.189; MTT data (raw readout) (HepG2; HepG2, 16.7 uM, experiment n = 2, technical triplicates): 0.140 and 0.112 and 0.095; pIC50 (HepG2; Homo sapiens, HepG2, 24 h): 4.89; susceptibility of gyrA S97L mutant [1]: resistant; MIC [1, 23]: 3.1 µM (≈ 1.43 µg/mL); MIC [1, 24]: 3.1 µM (≈ 1.43 µg/mL); MIC [1, 25]: > 50 µM; MIC (P. aeruginosa ATCC 27853): > 50 µM; MIC (A. baumannii ATCC BAA747): 25 µM (≈ 11.5 µg/mL); MIC [2, 26]: > 50 µM; MIC [2, 27]: > 50 µM

Source: publication PMC11374673, “Discovery of isoquinoline sulfonamides as allosteric gyrase inhibitors with activity against fluoroquinolone-resistant bacteria” (Nature Chemistry, 2024)
